Marks after values point to notes of the source that are not given here.
Experiments:
testes of a male pig = assay: Example 3: pattern of testicular shrinkage after intratesticular injection in male pig; assay type: in vivo; settings: 1 ml of 10% by weight solution per testis
testes of male puppies = assay: Example 6: clinical trial in 225 male puppies at five sites, semen analysis and physical examination; assay type: in vivo, dog
Experimental: Four hundred fifty (450) intratesticular injections were performed in the dorsal cranial area of the testes of 225 male puppies (one injection per testis; two testes per dog) at five investigational sites. The 225 puppies ranged in age from 2½ to 10 months and were of various breeds. After the necessary training, all of the investigators mastered the technique of testicular measurement and intratesticular injection (dorsal cranial). Based on the experience of these investigators in the clinical trial, all veterinarians will be able to easily use this dorsal cranial injection technique.
After at least 6 months of follow-up, semen analysis and physical examination were performed as the primary indicators of clinical trial efficacy.

testis = assay: Example 2: beagle puppy injected in each testis, testes excised at 30 months; assay type: in vivo, beagle dog; settings: 0.25 ml per testis (13.1 mg/ml zinc), dorsal cranial, injected at six months, sacrificed at 30 months; control 6.8 g
Experimental: A beagle puppy weighing 19 lbs at six months of age was injected in each testis with 0.25 ml of a chemical sterilant containing 13.1 mg/ml of zinc as zinc gluconate neutralized by 34.8 mg/ml of l-arginine with the pH adjusted to 7.0 with hydrochloric acid. The injection was into the dorsal cranial portion of the testis as could best be estimated externally.
The treated animal was sacrificed at 30 months of age when he weighed 31 lbs. The testes were excised and each weighed 3.5 g.
A control beagle weighing 18 lbs at six months was housed with the treated animal. This animal was also sacrificed at 30 months. The control dog weighed 30 lbs and each testis weighed 6.8 g. A histological section of the rete testis of the control animal was taken and a light micrograph of the section at 10× is shown in FIG. 2.

[1] = Example 5: body homeostasis, clinical observations and testicular measurement in Beagle puppies; assay type: in vivo, Beagle dog; settings: 25, 30 or 35 mg per testis
Experimental: (§1) Forty (40) healthy, male Beagle puppies, six months of age, were divided into the following four groups according to testicular width.
The body weight of all dogs increased.
(§2) As compared to the control placebo group, serum testosterone level at twelve (12) months post-injection had (1) decreased by 43% in the 25 mg treated group, (2) decreased by 55% in the 30 mg treated group, and (3) decreased by 52% in the 35 mg treated group.

serum testosterone = assay: Example 5: serum testosterone level in Beagle puppies; assay type: in vivo, Beagle dog; settings: twelve months post-injection
Experimental: as §1, §2

male Beagle puppies = assay: Example 5: exposure of treated dogs to females in heat (copulation, pregnancy); assay type: in vivo, Beagle dog; settings: for number of the ten dogs that copulated with females: each dog exposed to three females in heat
Excerpt: as §1
Of the ten control placebo dogs, seven copulated with females and pregnancy occurred in all of the females (100% pregnancy rate). Each of the treated dogs was exposed to three different females in heat.

[2] = system: testes of male Beagle puppies; assay: Example 5: semen analysis of Beagle puppies; assay type: in vivo, Beagle dog
Experimental: as §1
Semen analysis was performed on a monthly basis for […]. Semen analysis at 24 months post-injection indicated the following.

[3] = system: testes of sexually mature male dogs; assay: Example 7: semen evaluation of 53 sexually mature male dogs; assay type: in vivo, dog; settings: six months post-injection, one of 53 dogs
Experimental: Dosage was based on testicular width according to the following table.
Semen analysis of all dogs prior to injection indicated normal fertility parameters. All of the dogs were followed for six months post-injection, and semen analysis was performed at 2 month intervals for a total of three times.

[4] = system: testes of male Beagle puppies; assay: Example 5: quantitative evaluation of testis histopathology; assay type: in vivo, Beagle dog; settings: n = 10
Experimental: as §1
Quantitative information provides the strongest evidence that control and treated tissues are either alike or different. In order to obtain the very detailed information about the testes after dorsal cranial injection, quantitative evaluation of the testes histopathology was performed in 40 dogs post-injection.

[5] = system: testes of Sprague Dawley male rats; assay: Example 4: infertility/sterility in rats, dorsal cranial vs midline injection, histopathology of epididymides and testes; assay type: in vivo, rat; settings: 0.1 ml 10% per testis; for infertility/sterility achieved, share of rats: two months post-injection, 10 rats
Experimental: Twenty (20) Sprague Dawley, male rats were divided into two groups of ten (10) rats per group. […] Two months post-injection, both groups were sacrificed, and all of the epididymides and testes were evaluated by histopathology.

[6] = Total of all six doses, n = 225
[7] = 25 mg per testis, 24 months post-injection, n = 10
[8] = 25 mg per testis, the 10% of dogs with severe oligospermia, 24 months
[9] = dorsal cranial injection, two months

With `N=C(N)NCCC[C@H](N)C(=O)O.[Zn]` [zinc arginine] the “pattern of testicular shrinkage” value (testes of a male pig; injection at the dorsal cranial area (FIG. 5)) was “proportional shrinkage” and the “pattern of testicular shrinkage” value (testes of a male pig; injection at the midline (FIG. 4)) was “disproportional shrinkage”.

With zinc gluconate neutralized by arginine the “Aspermia (No Semen Ejaculated), number of puppies” value (“Aspermia (No Semen Ejaculated)” for short) (testes of male puppies; [6]) was 174, the “Azoospermia (No Sperm in Ejaculate), number of puppies” value (“Azoospermia (No Sperm in Ejaculate)” for short) (testes of male puppies; [6]) was 48 and the “Necrospermia (Sperm in Ejaculate Are Dead or Motionless), number of puppies” value (from here on “Necrospermia”) (testes of male puppies; [6]) was 1. The “Oligospermia (Less than 20 Million Sperm per ml), number of puppies” value (testes of male puppies; [6]) was 1, the “Sperm in Ejaculate Are Motile, number of puppies” value (shortened to “Sperm in Ejaculate Are Motile”) (testes of male puppies; [6]) was 1 and the “Aspermia (No Semen Ejaculated)” value (testes of male puppies; dose per testis 0.2 ml) was 59. For the same molecule, the “Azoospermia (No Sperm in Ejaculate)” value (testes of male puppies; dose per testis 0.2 ml) was 12, the “Necrospermia” value (testes of male puppies; dose per testis 0.2 ml) was 0 and the “Oligospermia (Less than 20 Million Sperm per ml), number of puppies” value (testes of male puppies; dose per testis 0.2 ml) was 1. For the same molecule, the “Sperm in Ejaculate Are Motile” value (testes of male puppies; dose per testis 0.2 ml) was 0, the “Aspermia (No Semen Ejaculated)” value (testes of male puppies; dose per testis 0.3 ml) was 27 and the “Azoospermia (No Sperm in Ejaculate)” value (testes of male puppies; dose per testis 0.3 ml) was 5. The “Necrospermia” value (testes of male puppies; dose per testis 0.3 ml) was 0, the “Oligospermia (Less than 20 Million Sperm per ml), number of puppies” value (testes of male puppies; dose per testis 0.3 ml) was 0 and the “Sperm in Ejaculate Are Motile” value (testes of male puppies; dose per testis 0.3 ml) was 0. The “Aspermia (No Semen Ejaculated)” value (testes of male puppies; dose per testis 0.5 ml) was 21, the “Azoospermia (No Sperm in Ejaculate)” value (testes of male puppies; dose per testis 0.5 ml) was 7 and the “Necrospermia” value (testes of male puppies; dose per testis 0.5 ml) was 0. For the same molecule, the “Oligospermia (Less than 20 Million Sperm per ml), number of puppies” value (testes of male puppies; dose per testis 0.5 ml) was 0, the “Sperm in Ejaculate Are Motile” value (testes of male puppies; dose per testis 0.5 ml) was 1* and the “Aspermia (No Semen Ejaculated)” value (testes of male puppies; dose per testis 0.7 ml) was 30. For the same molecule, the “Azoospermia (No Sperm in Ejaculate)” value (testes of male puppies; dose per testis 0.7 ml) was 4, the “Necrospermia” value (testes of male puppies; dose per testis 0.7 ml) was 0 and the “Oligospermia (Less than 20 Million Sperm per ml), number of puppies” value (testes of male puppies; dose per testis 0.7 ml) was 0. The “Sperm in Ejaculate Are Motile” value (testes of male puppies; dose per testis 0.7 ml) was 0, the “Aspermia (No Semen Ejaculated)” value (testes of male puppies; dose per testis 0.8 ml) was 19 and the “Azoospermia (No Sperm in Ejaculate)” value (testes of male puppies; dose per testis 0.8 ml) was 4. For the same molecule, the “Necrospermia” value (testes of male puppies; dose per testis 0.8 ml) was 1, the “Oligospermia (Less than 20 Million Sperm per ml), number of puppies” value (testes of male puppies; dose per testis 0.8 ml) was 0 and the “Sperm in Ejaculate Are Motile” value (testes of male puppies; dose per testis 0.8 ml) was 0. For the same molecule, the “Aspermia (No Semen Ejaculated)” value (testes of male puppies; dose per testis 1.0 ml) was 18, the “Azoospermia (No Sperm in Ejaculate)” value (testes of male puppies; dose per testis 1.0 ml) was 16 and the “Necrospermia” value (testes of male puppies; dose per testis 1.0 ml) was 0. For the same molecule, the “Oligospermia (Less than 20 Million Sperm per ml), number of puppies” value (testes of male puppies; dose per testis 1.0 ml) was 0, the “Sperm in Ejaculate Are Motile” value (testes of male puppies; dose per testis 1.0 ml) was 0 and the “efficacy (infertility/sterility)” value (testes of male puppies; six different doses, 225 puppies, at least 6 months of follow-up) was 99.6%. For the same molecule, the “number of puppies (of 225) in which infertility/sterility was achieved” value (testes of male puppies; six different doses, dorsal cranial, at least 6 months of follow-up) was 224, the “weight of each excised testis” value (testis) was 3.5 g and the “effect on rectal temperature, complete blood count, blood chemistries” value [1] was “no clinical effect”. For the same molecule, the body weight ([1]; all dogs) was “increased”, the “effect on body homeostasis” value ([1]; dorsal cranial) was “None of the treatments affected body homeostasis” and the testicular swelling post-injection ([1]; for one week post-injection) was “transient testicular swelling”. For the same molecule, the “testicular measurement after the first week” value ([1]; p<0.0001, control placebo increased) was “decreased significantly”, the “decrease of serum testosterone level compared to control placebo” value (“decrease of serum testosterone level” for short) (serum testosterone; 25 mg per testis) was 43% and the “decrease of serum testosterone level” value (serum testosterone; 30 mg per testis) was 55%. The “decrease of serum testosterone level” value (serum testosterone; 35 mg per testis) was 52%, the “number of the ten dogs that copulated with females” value (“number … with females” for short) (male Beagle puppies; 25 mg per testis) was “Two” and the “number … with females” value (male Beagle puppies; 30 mg per testis) was “five”. The “number … with females” value (male Beagle puppies; 35 mg per testis) was “four”, the “pregnancy of females after copulation” value (male Beagle puppies; 25, 30 and 35 mg per testis, control placebo 100% pregnancy rate) was “no pregnancy occurred” and the “share of dogs permanently sterilized (azoospermia or aspermia)” value (“share of dogs permanently sterilized” below) [2, 7] was 90%. For the same molecule, the “share of dogs with severe oligospermia” value [2, 7] was 10%, the “Concentration/ml (×10^6)” value [2, 8] was 0.01 ×10^6/ml and the Motility [2, 8] was 1.00%. For the same molecule, the “Normal Sperm” value [2, 8] was 6.70%, the “Volume of Ejaculation” value [2, 8] was 0.74 mL and the “share of dogs permanently sterilized” value ([2]; 30 mg per testis, 24 months post-injection, n = 10) was 100%. The “share of dogs permanently sterilized” value ([2]; 35 mg per testis, 24 months post-injection, n = 10) was 100%, the “overall outcome of one intratesticular injection” value ([2]; dorsal cranial area, male puppies) was “permanent sterilization” and the “Sperm Concentration of the dog that stayed normal” value [3] was “Normal 70 million/ml”. The “Basement Membrane, Average” value ([4]; 25 mg per testis) was 4.80 μm, the “Basement Membrane, Left” value ([4]; 25 mg per testis) was 5.00 μm and the “Basement Membrane, Right” value ([4]; 25 mg per testis) was 4.59 μm. The “Diameter of Seminiferous Tubule, Average” value ([4]; 25 mg per testis) was 124.00 μm, the “Diameter of Seminiferous Tubule, Left” value ([4]; 25 mg per testis) was 116.0 μm and the “Diameter of Seminiferous Tubule, Right” value ([4]; 25 mg per testis) was 132.0 μm. The “Height of Germinal Epithelium, Average” value ([4]; 25 mg per testis) was 14.10 μm, the “Height of Germinal Epithelium, Left” value ([4]; 25 mg per testis) was 11.8 μm and the “Height of Germinal Epithelium, Right” value ([4]; 25 mg per testis) was 16.4 μm. The “Basement Membrane, Average” value ([4]; 30 mg per testis) was 5.53 μm, the “Basement Membrane, Left” value ([4]; 30 mg per testis) was 5.50 μm and the “Basement Membrane, Right” value ([4]; 30 mg per testis) was 5.57 μm. For the same molecule, the “Diameter of Seminiferous Tubule, Average” value ([4]; 30 mg per testis) was 113.75 μm, the “Diameter of Seminiferous Tubule, Left” value ([4]; 30 mg per testis) was 115.1 μm and the “Diameter of Seminiferous Tubule, Right” value ([4]; 30 mg per testis) was 112.4 μm. The “Height of Germinal Epithelium, Average” value ([4]; 30 mg per testis) was 7.20 μm, the “Height of Germinal Epithelium, Left” value ([4]; 30 mg per testis) was 5.5 μm and the “Height of Germinal Epithelium, Right” value ([4]; 30 mg per testis) was 8.9 μm. The “Basement Membrane, Average” value ([4]; 35 mg per testis) was 6.00 μm, the “Basement Membrane, Left” value ([4]; 35 mg per testis) was 6.04 μm and the “Basement Membrane, Right” value ([4]; 35 mg per testis) was 5.96 μm. For the same molecule, the “Diameter of Seminiferous Tubule, Average” value ([4]; 35 mg per testis) was 124.05 μm, the “Diameter of Seminiferous Tubule, Left” value ([4]; 35 mg per testis) was 124.8 μm and the “Diameter of Seminiferous Tubule, Right” value ([4]; 35 mg per testis) was 123.3 μm. For the same molecule, the “Height of Germinal Epithelium, Average” value ([4]; 35 mg per testis) was 10.30 μm, the “Height of Germinal Epithelium, Left” value ([4]; 35 mg per testis) was 9.6 μm and the “Height of Germinal Epithelium, Right” value ([4]; 35 mg per testis) was 11.0 μm. For the same molecule, the “function of the testes (histopathology)” value [5, 9] was “complete dysfunction in the testes”, the “sperm in the epididymides” value [5, 9] was “no sperm were found in the epididymides” and the “infertility/sterility achieved, share of rats” value ([5]; dorsal cranial injection) was 100%. For the same molecule, the “function of the testes (histopathology)” value ([5]; midline injection, two months) was “some parts of the testes were functioning”, the “share of epididymides in which sperm were found” value ([5]; midline injection, two months) was 30% and the “infertility/sterility achieved, share of rats” value ([5]; midline injection) was 70%.

— patent publication US8389019B2, “Method for improving the quality of meat by reducing boar taint” (priority 2007, dated 2013)
